Several values for one entry are separate records, joined by “and”; a condition that tells them apart may be missing. Identical values can stand only once. Toxic doses and inconclusive results are not listed.
Tested on: P388 leukemia ip, CD2F1 mice, survival T/C
Assay: NCI In Vivo Anticancer Drug Screen. Data for tumor model P388 Leukemia (intraperitoneal) in CD2F1 (CDF1) mice
Details: endpoint: median survival time, higher = longer survival
Summary of the method: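 Mice carrying the transplanted tumor received test compound or vehicle. Survival was recorded in each group, and the value is the treated-group measurement divided by that of the vehicle-treated control group.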

[1] = dose: 50.0 mg/kg/injection, schedule: Q01DX005 (ip), vehicle: saline with Tween-80
[2] = dose: 100.0 mg/kg/injection, schedule: Q01DX005 (ip), vehicle: saline with Tween-80
[3] = dose: 50.0 mg/kg/injection, schedule: Q01DX005 (ip), vehicle: Klucel (hydroxypropylcellulose) (HPC)
[4] = dose: 100.0 mg/kg/injection, schedule: Q01DX005 (ip), vehicle: Klucel (hydroxypropylcellulose) (HPC)
[5] = dose: 200.0 mg/kg/injection, schedule: Q01DX005 (ip), vehicle: Klucel (hydroxypropylcellulose) (HPC)
[6] = dose: 100.0 mg/kg/injection, schedule: Q01DX001 (ip), vehicle: saline with Tween-80
[7] = dose: 60.0 mg/kg/injection, schedule: Q01DX005 (ip), vehicle: saline with Tween-80
[8] = dose: 120.0 mg/kg/injection, schedule: Q01DX005 (ip), vehicle: saline with Tween-80
[9] = dose: 50.0 mg/kg/injection, schedule: Q01DX005 (ip), vehicle: saline
[10] = dose: 100.0 mg/kg/injection, schedule: Q01DX005 (ip), vehicle: saline
[11] = dose: 200.0 mg/kg/injection, schedule: Q01DX005 (ip), vehicle: saline
[12] = dose: 100.0 mg/kg/injection, schedule: Q01DX009 (ip), vehicle: saline with Tween-80
[13] = dose: 200.0 mg/kg/injection, schedule: Q01DX009 (ip), vehicle: saline with Tween-80
[14] = dose: 50.0 mg/kg/injection, schedule: Q01DX009 (ip), vehicle: saline
[15] = dose: 100.0 mg/kg/injection, schedule: Q01DX009 (ip), vehicle: saline
[16] = dose: 200.0 mg/kg/injection, schedule: Q01DX009 (ip), vehicle: saline
[17] = dose: 50.0 mg/kg/injection, schedule: Q01DX009 (ip), vehicle: saline with Tween-80

With `CNCC(=O)Nc1ccc(C2NC(=O)Cc3ccccc32)cc1` (centres undefined) the T/C (dose: 100.0 mg/kg/injection, schedule: Q04DX002 (ip), vehicle: saline) was 104 % of control and the T/C (dose: 200.0 mg/kg/injection, schedule: Q04DX002 (ip), vehicle: saline) was 111 % of control.

For `COc1ccc(B(C)N2CCCCC2C)cc1` (centres undefined), the T/C [1] was 102 % of control, the T/C [2] was 100 % of control and the T/C (dose: 200.0 mg/kg/injection, schedule: Q01DX005 (ip), vehicle: saline with Tween-80) was 98 % of control.

In the case of `Cc1cc(C(O)(C(F)(F)F)C(F)(F)F)c(N)c(C(O)(C(F)(F)F)C(F)(F)F)c1`, the T/C [3] is reported as 104 % of control and the T/C [4] is reported as 103 % of control.

With `c1ccc(C2C(c3nc4ccccc4o3)C(c3ccccc3)C2c2nc3ccccc3o2)cc1` (centres undefined) the T/C [3] was 91 % of control, the T/C [4] was 89 % of control and the T/C [5] was 86 % of control.

With `CS/C(Nc1ccccc1)=C1\CCCn2c1nc1ccccc1c2=O` the T/C (dose: 25.0 mg/kg/injection, schedule: Q01DX001 (ip), vehicle: saline with Tween-80) was 105 % of control, the T/C (dose: 50.0 mg/kg/injection, schedule: Q01DX001 (ip), vehicle: saline with Tween-80) was 99 % of control and the T/C [6] was 90 % of control and 91 % of control.

With `CCn1cnc2sc3c(c2c1=O)CCCC3` the T/C [7] was 97 % of control and the T/C [8] was 98 % of control.

In the case of `C1CC2CC1C13OC1CC1OC213` (centres undefined), the T/C (dose: 100.0 mg/kg/injection, schedule: Q04DX002 (ip), vehicle: Klucel (hydroxypropylcellulose) (HPC)) is reported as 104 % of control, the T/C (dose: 200.0 mg/kg/injection, schedule: Q04DX002 (ip), vehicle: Klucel (hydroxypropylcellulose) (HPC)) is reported as 105 % of control and the T/C (dose: 400.0 mg/kg/injection, schedule: Q04DX002 (ip), vehicle: Klucel (hydroxypropylcellulose) (HPC)) is reported as 111 % of control.

For `C=C(N)/C=C1/NC(C)=CS1`, the T/C (dose: 15.0 mg/kg/injection, schedule: Q01DX005 (ip), vehicle: saline) was 96 % of control, the T/C (dose: 30.0 mg/kg/injection, schedule: Q01DX005 (ip), vehicle: saline) was 96 % of control and the T/C (dose: 60.0 mg/kg/injection, schedule: Q01DX005 (ip), vehicle: saline) was 91 % of control and 94 % of control.

`COc1ccc2c(c1)C(CCN(C)C)(CCN(C)C)C(=O)CC2` was tested, and the T/C (dose: 12.5 mg/kg/injection, schedule: Q01DX005 (ip), vehicle: saline) was 94 % of control, the T/C (dose: 25.0 mg/kg/injection, schedule: Q01DX005 (ip), vehicle: saline) was 95 % of control and the T/C [9] was 104 % of control and 94 % of control.

In the case of `O=C(O)/C(=C\c1c(Cl)[nH]c2ccccc12)NC(=O)c1ccccc1`, the T/C [6] is reported as 103 % of control, the T/C (dose: 200.0 mg/kg/injection, schedule: Q01DX001 (ip), vehicle: saline with Tween-80) is reported as 99 % of control and the T/C (dose: 400.0 mg/kg/injection, schedule: Q01DX001 (ip), vehicle: saline with Tween-80) is reported as 98 % of control.

`O=C1OCC/C1=C\c1ccco1` was tested, and the T/C (dose: 50.0 mg/kg/injection, schedule: Q01DX005 (ip), vehicle: acetone) was 119 % of control and the T/C (dose: 100.0 mg/kg/injection, schedule: Q01DX005 (ip), vehicle: acetone) was 103 % of control.

`CCCCNC(=O)NC1OC(CO)C(O)C1O` (centres undefined) was tested, and the T/C [9] was 98 % of control, the T/C [10] was 97 % of control and the T/C [11] was 100 % of control.

For `CCCCN(S(=O)(=O)c1ccc(C)cc1)S(=O)(=O)c1ccc(C)cc1`, the T/C [12] was 120 % of control, the T/C [13] was 106 % of control and the T/C (dose: 400.0 mg/kg/injection, schedule: Q01DX009 (ip), vehicle: saline with Tween-80) was 87 % of control.

For `CCc1cc2c(cc1-c1csc(C/C(N)=N/O)n1)C(C)(C)CCC2(C)C`, the T/C [14] was 104 % of control, the T/C [15] was 103 % of control and the T/C [16] was 100 % of control.

`C(#Cc1ccncc1)c1ccncc1` was tested, and the T/C [1] was 100 % of control and the T/C [2] was 98 % of control.

With `C=CCCC1CC2CCCCN2O1` (centres undefined) the T/C (dose: 61.25 mg/kg/injection, schedule: Q01DX009 (ip), vehicle: saline) was 115 % of control, the T/C (dose: 122.5 mg/kg/injection, schedule: Q01DX009 (ip), vehicle: saline) was 103 % of control and the T/C (dose: 245.0 mg/kg/injection, schedule: Q01DX009 (ip), vehicle: saline) was 100 % of control.

In the case of `CCC[CH2][Sn]([CH2]CCC)([S]CC(=O)OC)[S]CC(=O)OC`, the T/C (dose: 1.56 mg/kg/injection, schedule: Q01DX001 (ip), vehicle: Klucel (hydroxypropylcellulose) (HPC)) is reported as 110 % of control, the T/C (dose: 3.12 mg/kg/injection, schedule: Q01DX001 (ip), vehicle: Klucel (hydroxypropylcellulose) (HPC)) is reported as 111 % of control and the T/C (dose: 6.25 mg/kg/injection, schedule: Q01DX001 (ip), vehicle: Klucel (hydroxypropylcellulose) (HPC)) is reported as 96 % of control. The T/C (dose: 12.5 mg/kg/injection, schedule: Q01DX001 (ip), vehicle: Klucel (hydroxypropylcellulose) (HPC)) was 106 % of control and the T/C (dose: 25.0 mg/kg/injection, schedule: Q01DX001 (ip), vehicle: Klucel (hydroxypropylcellulose) (HPC)) was 115 % of control.

In the case of `CCOC(=O)CC(SCP(=O)(OCC)OCC)C(=O)OCC` (centres undefined), the T/C [7] is reported as 101 % of control, the T/C [8] is reported as 95 % of control and the T/C (dose: 240.0 mg/kg/injection, schedule: Q01DX005 (ip), vehicle: saline with Tween-80) is reported as 93 % of control.

In the case of `CSc1nc(C#N)c(/N=C\N(C)C)s1`, the T/C [3] is reported as 100 % of control, the T/C [4] is reported as 99 % of control and the T/C [5] is reported as 100 % of control.

For `CC1=Nc2cc3ccccc3cc2N(C)/C1=C/C1=C(Cl)C(=O)c2ccccc2C1=O`, the T/C (dose: 12.5 mg/kg/injection, schedule: Q01DX009 (ip), vehicle: saline with Tween-80) was 96 % of control, the T/C (dose: 25.0 mg/kg/injection, schedule: Q01DX009 (ip), vehicle: saline with Tween-80) was 100 % of control and the T/C [17] was 92 % of control and 97 % of control. For the same compound, the T/C [12] was 106 % of control and the T/C [13] was 89 % of control.

In the case of `COc1ccc(-c2nnc(-c3ccc(Cl)cc3)c(=O)[nH]2)cc1`, the T/C (dose: 6.25 mg/kg/injection, schedule: Q01DX005 (ip), vehicle: saline with Tween-80) is reported as 91 % of control and the T/C (dose: 12.5 mg/kg/injection, schedule: Q01DX005 (ip), vehicle: saline with Tween-80) is reported as 90 % of control.

With `CC(C)CCCCCCCCCCCCC(=O)NCCC(=O)NC1C(CO)OC(Nc2ncnc3nc[nH]c23)C(O)C1O` (centres undefined) the T/C (dose: 0.39 mg/kg/injection, schedule: Q01DX009 (ip), vehicle: other) was 107 % of control, the T/C (dose: 0.78 mg/kg/injection, schedule: Q01DX009 (ip), vehicle: other) was 102 % of control and the T/C (dose: 1.56 mg/kg/injection, schedule: Q01DX009 (ip), vehicle: other) was 156 % of control. The T/C (dose: 6.25 mg/kg/injection, schedule: Q01DX009 (ip), vehicle: other) was 112 % of control and 96 % of control and the T/C (dose: 12.5 mg/kg/injection, schedule: Q01DX009 (ip), vehicle: other) was 93 % of control.

With `CC(O)C(=O)NCO` (centres undefined) the T/C [9] was 104 % of control, the T/C [10] was 100 % of control and the T/C [11] was 100 % of control.

With `Nc1cc(N)c(N=Nc2cccc3c(S(=O)(=O)O)cccc23)cc1N=Nc1cc([N+](=O)[O-])ccc1O` the T/C [14] was 109 % of control, the T/C [15] was 109 % of control and the T/C [16] was 96 % of control.

For `C=CCSc1nc(N)nc2nc[nH]c12`, the T/C [17] was 100 % of control, the T/C [12] was 100 % of control and the T/C [13] was 90 % of control.

With `N#C/C(=C\c1ccc(Cl)cc1Cl)C(=O)N/N=C/c1ccc(Cl)cc1Cl` the T/C (dose: 100.0 mg/kg/injection, schedule: Q04DX003 (ip), vehicle: saline) was 95 % of control, the T/C (dose: 200.0 mg/kg/injection, schedule: Q04DX003 (ip), vehicle: saline) was 97 % of control and the T/C (dose: 400.0 mg/kg/injection, schedule: Q04DX003 (ip), vehicle: saline) was 90 % of control.

In the case of `CCCCC(CC)COC(C)=O` (centres undefined), the T/C (dose: 100.0 mg/kg/injection, schedule: Q04DX003 (ip), vehicle: saline with Tween-80) is reported as 104 % of control, the T/C (dose: 200.0 mg/kg/injection, schedule: Q04DX003 (ip), vehicle: saline with Tween-80) is reported as 109 % of control and the T/C (dose: 400.0 mg/kg/injection, schedule: Q04DX003 (ip), vehicle: saline with Tween-80) is reported as 86 % of control.

In the case of `COc1cc2c(c(OC)c1OC)CCC/C2=N\NC(N)=S`, the T/C (dose: 100.0 mg/kg/injection, schedule: Q04DX003 (ip), vehicle: Klucel (hydroxypropylcellulose) (HPC)) is reported as 92 % of control, the T/C (dose: 200.0 mg/kg/injection, schedule: Q04DX003 (ip), vehicle: Klucel (hydroxypropylcellulose) (HPC)) is reported as 92 % of control and the T/C (dose: 400.0 mg/kg/injection, schedule: Q04DX003 (ip), vehicle: Klucel (hydroxypropylcellulose) (HPC)) is reported as 86 % of control.

Source: PubChem BioAssay AID330 (DTP/NCI, 2004)
